Experimental data from patent US10738054B2, “Synergistic compositions comprising (R)-dimiracetam (1) and (S)-dimiracetam (2) in a non-racemic ratio” (Metys Pharmaceuticals AG, priority 2017, dated 2020).
Where “and” joins values, the source holds several entries; their conditions need not be identical. Identical values can stand only once.

Legend:
[1] = system: NMDA plus glycine-evoked [3H]-D-aspartic acid release from rat spinal synaptosomes; assay: Inhibition of NMDA+glycine-induced glutamate ([3H]-D-Asp) release from rat spinal synaptosomes (Example 2); type: biochemical; details: for IC50: rat spinal synaptosomes, 10 μM NMDA plus 1 μM glycine, read-out: estimated IC50 for inhibition of NMDA plus glycine-evoked [3H]-D-aspartic acid release; for Percent inhibition of NMDA + glycine-induced glutamate release from rat spinal synaptosomes: mean ± S.E.M. of 3 to 6 experiments
Method: Rat spinal synaptosomes, free from glial contaminants, were prepared according to the method of Paluzzi S. et al., 2007, a modification of the method of Nakamura et al., 1993, as follows.
Sprague-Dawley rats aged between 90 to 130 days were used. Animals were housed at constant temperature (22±1° C.) and relative humidity (50%) under a regular light-dark schedule (lights 7.00 am-7.00 pm). Food and water were freely available.
Rats were sacrificed by decapitation and the whole spinal cord was rapidly removed and maintained at 4° C. Rat spinal cord was homogenized (90 rpm; 24 up-down strokes in 2 min) in 10 volumes (1 g tissue in 10 ml) of ice cold 0.32 M sucrose, buffered at pH 7.4 using a glass-teflon tissue grinder (clearance 0.25 mm). The homogenate was centrifuged (5 min, 1000 g at 4° C.) to remove nuclei and debris, and the supernatant was gently stratified at 0-4° C. on a discontinuous Percoll® (Sigma Aldrich, St Louis, Mo., USA) gradient (2, 6, 10 and 20% v/v in Tris-buffered sucrose) and centrifuged at 33,500 g for 5 min. The layer between 10 and 20% Percoll (i.e. the synaptosomal fraction) was collected and washed by centrifugation in physiological medium having the following composition (mM): NaCl, 140; KCl, 3; MgSO4 1.2; NaH2PO4, 1.2; NaHCO3 5; CaCl2 1.2; HEPES 10; glucose, 10; pH 7.4. Protein content was measured according to Bradford M M, 1976 using bovine serum albumin as a standard.
Synaptosomes (about 70 μg protein) were incubated at 37° C. for 15 min in 2.5 mL of 0.05 μM [^3H]-D-aspartate ([^3H]-D-Asp; Perkin Elmer Italia, Monza, Milano, Italy). Then, the suspension was diluted to 122.5 mL with physiological medium maintained at 37° C. and 5 mL aliquots of the synaptosomal suspension were layered on microporous filters placed at the bottom of a set of 24 parallel 25 mL superfusion chambers maintained at 37° C. (Superfusion system, Ugo Basile, Comerio, Varese, Italy). Superfusion was then started with physiological medium at a rate of 0.5 mL/min, and was continued for 46 min. Starting at t=37 min, nine consecutive 1-min filtrate samples were collected. NMDA (10 μM) and glycine (1 μM) were introduced at the end of the first sample collected and maintained until the end of the experiment.
The radioactivity contained in each filtrate sample was measured by scintillographic methods, using a Ultima Gold scintillation fluid (Perkin-Elmer Milan, Italy). Each whole 0.5 mL sample was counted for radioactivity by adding 3 mL of scintillation fluid.
Tritium content measured in each sample was expressed as fractional percent (i.e. percent content of each sample with respect to total [^3H] content at the onset of the respective collection period). Drug effects were evaluated by calculating the ratio between the effluxes in the seventh fraction collected (in which the maximum effect of NMDA was reached) and that of the first fraction (basal release, prior to application of NMDA+glycine). This ratio was compared to the same seventh- and first-fraction ratio obtained under control conditions.
The possible effects of racemic and non-racemic dimiracetam mixtures on NMDA plus glycine-induced neurotransmitter release from rat spinal cord synaptosomes were assessed.

[2] = Rat plasma concentration-time profiles after oral administration; type: in vivo; details: for rat plasma concentration-time profiles after oral administration: 75 mg/kg p.o. enantiomer vs 150 mg/kg p.o. racemate (FIG. 4A, 4B); for interconversion of enantiomers in vivo: rat, oral administration
Method: FIG. 4A: Comparison of the plasma concentration-time profiles of the (R)-enantiomer after oral administration of (R)-dimiracetam (75 mg/kg) and after oral administration of racemic dimiracetam (150 mg/kg)
FIG. 4B: Comparison of the plasma concentration-time profiles of the (S)-enantiomer after oral administration of (S)-dimiracetam (2) (75 mg/kg) and after oral administration of racemic dimiracetam (150 mg/kg).

[3] = system: rats pre-treated with 2′,3′-dideoxycytidine (ddC, zalcitabine); details: cited from earlier work
[4] = system: NMDA+glycine-induced [3H]-D-aspartate release in rat spinal cord synaptosomes; assay: In vitro inhibition of pre-loaded [3H]-D-aspartate release induced by NMDA+glycine in rat spinal cord synaptosomes (Example 5); type: biochemical; details: tested at 10 nM
Method: These experiments were performed following the previously published methodology (Fariello et al. Neuropharmacology. 2014, (81), 85-94) and the results are shown in FIG. 5.

[5] = system: rats with oxaliplatin-induced mechanical hyperalgesia; assay: Paw pressure test (Randall & Selitto) in oxaliplatin model; type: in vivo, rat; details: oxaliplatin 2.4 mg/kg i.p.
Method: Paw mechanical sensitivity was determined using a Randall & Selitto apparatus (Randall and Selitto, 1957) exerting a force that increases at constant rate (32 g/s). The stimulus causing paw withdrawal was evaluated before and at different times after treatment. Results represent the mean of mechanical thresholds for paw withdrawal expressed as grams. To avoid possible damage to the rat paw the maximum applied force was set at 240 g. In the single administration protocol, paw pressure tests were performed before (pre-dose) and at regular intervals after treatment.
Peripheral sensory neuropathy was induced in adult rats, by administration of oxaliplatin (Tocris) at 2.4 mg/kg i.p. in saline once daily for 5 consecutive days every week for three weeks (cumulative dose 36 mg/kg) according to Cavaletti et al., 2001. Starting from day 21 after the first oxaliplatin administration, the effect of repeated oral administration of racemic dimiracetam or the preferred inventive composition with an enantiomeric excess of (R)-dimiracetam of 50% corresponding to a 3:1 (R):(S) ratio of the enantiomers on oxaliplatin-induced mechanical hyperalgesia was assessed.
After repeated oral administration of either racemic dimiracetam or the preferred inventive composition with an enantiomeric excess of (R)-dimiracetam of 50%, oxaliplatin-induced mechanical hyperalgesia was measured. Pain threshold was assessed by a Randall & Selitto analgesymeter before the morning administration. […] Development of tolerance was not observed.
(§1) After repeated oral administration of either racemic dimiracetam or the preferred inventive composition with an enantiomeric excess of (R)-dimiracetam of 50%, oxaliplatin-induced mechanical hyperalgesia was measured. Pain threshold was assessed by a Randall & Selitto analgesymeter (Leighton et al. Br. J. Pharmacol. 93:553-560, 1988) before the morning administration. In the morning of day 28, also mechanical allodynia (Sakurai et al. Pain 147:165-74, 2009) and cold sensitivity were assessed, using the von Frey and cold plate tests (Di Cesare Mannelli et al. Exp Neurol 261:22-33, 2014), respectively. […] Development of tolerance was not observed.
Paw mechanical sensitivity was determined using a Randall & Selitto apparatus exerting a force that increases at constant rate (32 g/s). The stimulus at which rats withdrew the paw was evaluated before and at different times after treatment. Results represent the mean of mechanical thresholds expressed as grams. To avoid any possible damage to the animal paw the maximum applied force was fixed at 240 g (Leighton et al. Br. J. Pharmacol. 93:553-560, 1988).

[6] = system: rats with oxaliplatin-induced mechanical allodynia; assay: Von Frey test in oxaliplatin model; type: in vivo, rat; details: oxaliplatin 2.4 mg/kg i.p.
Method: as §1
The animals were placed in 20 cm×20 cm Plexiglas boxes equipped with a metallic mesh floor, 20 cm above the bench. Animals were allowed to habituate themselves to their environment for 15 min before the test. An electronic Von Frey hair unit (Ugo Basile, Varese, Italy) was used: the withdrawal threshold was evaluated by applying forces ranging from 0 to 50 g with a 0.2 g accuracy. […] The paw sensitivity threshold was defined as the minimum force required to elicit a robust and immediate withdrawal reflex of the paw. Voluntary movements associated with locomotion were not considered as a withdrawal response. Stimuli were applied to each posterior paw at 5 s intervals. Measurements were repeated 5 times and the final value was obtained by averaging the 5 measurements (Sakurai et al. Pain 147:165-74, 2009).

[7] = system: rats with oxaliplatin-induced cold sensitivity; assay: Cold plate test in oxaliplatin model; type: in vivo, rat; details: oxaliplatin 2.4 mg/kg i.p.
Method: as §1
The animals were placed in a stainless box (12 cm×20 cm×10 cm) with a cold plate as floor. The temperature of the cold plate was kept constant at 4° C.±1° C. Pain-related behaviors (i.e. lifting and licking of the hind paw) were observed and the time (s) of the first sign was recorded. The cut-off time of the latency of paw lifting or licking was set at 60 s (Di Cesare Mannelli et al. Exp Neurol 261:22-33, 2014).

[8] = system: NMDA-plus-glycine-triggered release of [3H]-D-aspartate in synaptosomal preparations of the hippocampus; details: hippocampus synaptosomes; read-out: IC50 for inhibiting NMDA-plus-glycine-triggered release of [3H]-D-aspartate; cited from earlier work
[9] = system: NMDA-plus-glycine-triggered [3H]-D-aspartate release in synaptosomal preparations of the spinal cord; details: spinal cord synaptosomes; read-out: IC50 for inhibiting NMDA-plus-glycine-triggered [3H]-D-aspartate release; cited from earlier work

O=C1CN2C(=O)CC[C@@H]2N1 [(R)-dimiracetam, (R)-3,6,7,7a-tetrahydro-1H-pyrrolo[1,5-a]imidazole-2,5-dione]
IC50 [1]: 0.123 µM | rat plasma concentration-time profiles after oral administration [2]: identical | interconversion of enantiomers in vivo [2]: do not to interconvert in vivo | efficacy response after a single oral dose [3]: partial efficacy response

O=C1CN2C(=O)CCC2N1 (racemic) [racemic dimiracetam, (RS)-3,6,7,7a-tetrahydro-1H-pyrrolo[1,5-a]imidazole-2,5-dione]
Percent inhibition of NMDA + glycine-induced glutamate release from rat spinal synaptosomes ([1]; 0.1 nM): 9 ± 13% | Percent inhibition of NMDA + glycine-induced glutamate release from rat spinal synaptosomes ([1]; 1 nM): 29 ± 3% | Percent inhibition of NMDA + glycine-induced glutamate release from rat spinal synaptosomes ([1]; 10 nM): 35 ± 4% | inhibition of NMDA plus glycine-evoked [3H]-D-aspartic acid release ([1]; at a concentration of 10 nM): 36% | IC50 [1]: 0.0146 µM and 0.015 µM | % inhibition (mean) [4]: 35.4% | Randall & Selitto, paw pressure, Day 28 ([5]; 15 mg/kg b.i.d.): 48.7 ± 2.5 g | Randall & Selitto, paw pressure, Pre-test ([5]; 15 mg/kg b.i.d.): 68.1 ± 1.2 g | Randall & Selitto, paw pressure, Day 28 ([5]; 50 mg/kg b.i.d.): 55.2 ± 1.0 g | Randall & Selitto, paw pressure, Pre-test ([5]; 50 mg/kg b.i.d.): 67.1 ± 0.8 g | Von Frey paw withdrawal, Day 28 ([6]; 15 mg/kg b.i.d.): 16.0 ± 1.5 g | Von Frey paw withdrawal, Pre-test ([6]; 15 mg/kg b.i.d.): 21.4 ± 1.0 g | Von Frey paw withdrawal, Day 28 ([6]; 50 mg/kg b.i.d.): 18.5 ± 2.3 g | Von Frey paw withdrawal, Pre-test ([6]; 50 mg/kg b.i.d.): 21.4 ± 0.5 g | Cold plate, licking latency, Day 28 ([7]; 15 mg/kg b.i.d.): 14.8 ± 1.5 s | Cold plate, licking latency, Pre-test ([7]; 15 mg/kg b.i.d.): 21.5 ± 1.0 s | Cold plate, licking latency, Day 28 ([7]; 50 mg/kg b.i.d.): 15.4 ± 1.0 s | Cold plate, licking latency, Pre-test ([7]; 50 mg/kg b.i.d.): 22.0 ± 0.8 s | IC50 [8]: ~3 µM | IC50 [9]: ~0.02 µM | efficacy response after a single oral dose [3]: superior response compared to either (R)- or (S)-dimiracetam alone

O=C1CN2C(=O)CC[C@H]2N1 [(S)-dimiracetam, (S)-3,6,7,7a-tetrahydro-1H-pyrrolo[1,5-a]imidazole-2,5-dione]
IC50 [1]: 0.418 µM | rat plasma concentration-time profiles after oral administration [2]: identical | interconversion of enantiomers in vivo [2]: do not to interconvert in vivo | efficacy response after a single oral dose [3]: smaller response than the corresponding dose of the (R)-enantiomer
